Numbers after ± are expanded uncertainties.

The record followed here is the NIST ThermoML archive (doi:10.1016/j.tca.2017.07.015).

Data set [1] can be described thus: Molar enthalpy of transition or fusion. As to conditions: Crystal; DSC.
The conditions of data set [2]: Crystal; DTA.

Consider `ON=Cc1ccccc1` [benzaldehyde oxime], for which the “Molar enthalpy of transition or fusion” value in data set [1] worked out at 3.39 ± 0.335 kcal/mol. Moreover, the Normal melting temperature in data set [2] amounted to 29.70 ± 0.5 °C.
